The target in test [1] is T1, G12C-mutant human KRAS (amino acid residues 1-188) (Homo sapiens, UniProt P01116, G12C).
T1 construct: G12D or G12C-mutant human KRAS (amino acid residues 1-188) with FLAG tag; made in house; host or cells: E. coli
The experiment in a line: KRAS Binding Disruption Assay (AlphaScreen; biotinylated KRpep-2d analogue or RAF1-RBD), G12C. Conditions: geometric mean, read-out: KRAS GMean IC50 (uM) MUTATION: G12C. In short, it runs like this: (§1)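 Mutant KRAS (5-20 nM) incubated 1 h at 25° C with test compound and 5-20 nM biotinylated KRpep-2d analogue or RAF1-RBD in 20 mM HEPES pH 7.5, 100 mM NaCl, 5 mM MgCl2, 0.01% Tween-20, 0.01% BSA.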

For test [2], the target named is T2, G12D-mutant human KRAS (amino acid residues 1-188) (Homo sapiens, UniProt P01116, G12D).
T2 construct: G12D or G12C-mutant human KRAS (amino acid residues 1-188) with FLAG tag; made in house; host or cells: E. coli
Nature of the test: KRAS Binding Disruption Assay (AlphaScreen; biotinylated KRpep-2d analogue or RAF1-RBD), G12D. Conditions: KRAS G12D; geometric mean; read-out: KRAS GMean IC50 (uM) MUTATION: G12D. In short, it runs like this: as §1
(In general: Alpha assays give light when donor and acceptor beads are brought close together.)

The target of test [3] is T3, G12V-mutant human KRAS (amino acid residues 1-188) (Homo sapiens, UniProt P01116, G12V).
T3 construct: G12V-mutant human KRAS (amino acid residues 1-188) with FLAG tag was purified from E. coli; made in house; host or cells: E. coli
Nature of the test: KRAS Binding Competition Assay (AlphaScreen; biotinylated KRpep-2d analogue), G12V. The following applies: geometric mean, read-out: KRAS GMean IC50 (uM) MUTATION: G12V.

Among the data in patent US20230081426A1, “COMPOUNDS AND METHODS FOR KRAS MODULATION AND INDICATIONS THEREFOR” (Plexxikon Inc., priority 2020, published 2023) are IC50 values, retold here.

As usually defined, the IC50 is the midpoint of a concentration-inhibition curve.

As for `CN1CCC[C@H]1COc1nc(N2C[C@H]3CC[C@@H](C2)N3C(=O)NC2CCNC2)c2ccc(-c3cc(O)cc4ccccc34)c(F)c2n1` (stereo partly drawn) [P-0106, (1R,5S)-3-(8-fluoro-7-(3-hydroxynaphthalen-1-yl)-2-(((S)-1-methylpyrrolidin-2-yl)methoxy)quinazolin-4-yl)-N-(pyrrolidin-3-yl)-3,8-diazabicyclo[3.2.1]octane-8-carboxamide], the IC50 in test [1], in test [2] and in test [3] was 0.0001 to 10 µM throughout.

As for `O=C(CC1CCNC1)N1[C@@H]2CC[C@H]1CN(c1nc(OCC34CCCN3CCC4)nc3cc(-c4cc(O)cc5ccccc45)ccc13)C2` (stereo partly drawn) [P-0110, 1-((1R,5S)-3-(7-(3-hydroxynaphthalen-1-yl)-2-((tetrahydro-1H-pyrrolizin-7a(5H)-yl)methoxy)quinazolin-4-yl)-3,8-diazabicyclo[3.2.1]octan-8-yl)-2-(pyrrolidin-3-yl)ethan-1-one], the IC50 in test [1], in test [2] and in test [3] was 0.0001 to 10 µM in each case.

For `CN1CCC[C@H]1COc1nc(N2CC3CCC(C2)N3C(=O)Cc2ccc(N)cc2)c2ccc(-c3cc(O)cc4ccccc34)cc2n1` [P-0115], the IC50 in test [1] fell in the range of 0.0001 to 10 µM; in test [2] it was 0.0001 to 10 µM; in test [3] it was 10 to 100 µM.

As to `CN1CCN(CCC(=O)N2[C@@H]3CC[C@H]2CN(c2nc(OC[C@@H]4CCCN4C)nc4cc(-c5cc(O)cc6ccccc56)ccc24)C3)CC1` [P-0116, 1-((1R,5S)-3-(7-(3-hydroxynaphthalen-1-yl)-2-(((S)-1-methylpyrrolidin-2-yl)methoxy)quinazolin-4-yl)-3,8-diazabicyclo[3.2.1]octan-8-yl)-3-(4-methylpiperazin-1-yl)propan-1-one], the values for the IC50 in test [1], in test [2] and in test [3] were 10 to 100 µM, 0.0001 to 10 µM and 10 to 100 µM, respectively.

On to `CN1CCC[C@H]1COc1nc(N2C[C@H]3CC[C@@H](C2)N3C(=O)Cc2c[nH]cn2)c2ccc(-c3cc(O)cc4ccccc34)cc2n1` [P-0117, 1-((1R,5S)-3-(7-(3-hydroxynaphthalen-1-yl)-2-(((S)-1-methylpyrrolidin-2-yl)methoxy)quinazolin-4-yl)-3,8-diazabicyclo[3.2.1]octan-8-yl)-2-(1H-imidazol-4-yl)ethan-1-one], for which the IC50 in test [1], in test [2] and in test [3] was 0.0001 to 10 µM in each case.

`CN1CCC[C@H]1COc1nc(N2C[C@H]3CC[C@@H](C2)N3C(=O)CN2CCCC2)c2ccc(-c3cc(O)cc4ccccc34)cc2n1` [P-0118, 1-((1R,5S)-3-(7-(3-hydroxynaphthalen-1-yl)-2-(((S)-1-methylpyrrolidin-2-yl)methoxy)quinazolin-4-yl)-3,8-diazabicyclo[3.2.1]octan-8-yl)-2-(pyrrolidin-1-yl)ethan-1-one]: the figures for the IC50 in test [1], in test [2] and in test [3] were 0.0001 to 10 µM, 0.0001 to 10 µM and 10 to 100 µM, respectively.

In the case of `CN1CCN(CCCC(=O)N2[C@@H]3CC[C@H]2CN(c2nc(OC[C@@H]4CCCN4C)nc4cc(-c5cc(O)cc6ccccc56)ccc24)C3)CC1` [P-0119, 1-((1R,5S)-3-(7-(3-hydroxynaphthalen-1-yl)-2-(((S)-1-methylpyrrolidin-2-yl)methoxy)quinazolin-4-yl)-3,8-diazabicyclo[3.2.1]octan-8-yl)-4-(4-methylpiperazin-1-yl)butan-1-one], the values for the IC50 in test [1], in test [2] and in test [3] were 0.0001 to 10 µM, 0.0001 to 10 µM and 10 to 100 µM, respectively.

As for `CN1CCC[C@H]1COc1nc(N2C[C@H]3CC[C@@H](C2)N3C(=O)CCn2cccn2)c2ccc(-c3cc(O)cc4ccccc34)cc2n1` [P-0120, 1-((1R,5S)-3-(7-(3-hydroxynaphthalen-1-yl)-2-(((S)-1-methylpyrrolidin-2-yl)methoxy)quinazolin-4-yl)-3,8-diazabicyclo[3.2.1]octan-8-yl)-3-(1H-pyrazol-1-yl)propan-1-one], the IC50 in test [1], in test [2] and in test [3] was 0.0001 to 10 µM throughout.

Turning to `CN1CCC[C@H]1COc1nc(N2C[C@H]3CC[C@@H](C2)N3C(=O)Cc2cnccn2)c2ccc(-c3cc(O)cc4ccccc34)cc2n1` [P-0121, 1-((1R,5S)-3-(7-(3-hydroxynaphthalen-1-yl)-2-(((S)-1-methylpyrrolidin-2-yl)methoxy)quinazolin-4-yl)-3,8-diazabicyclo[3.2.1]octan-8-yl)-2-(pyrazin-2-yl)ethan-1-one], the IC50 in test [1] lay in the range of 10 to 100 µM; in test [2], 0.0001 to 10 µM; in test [3] it was 10 to 100 µM.

Take `O=C(N[C@@H]1CCNC1)N1[C@@H]2CC[C@H]1CN(c1nc(OCC34CCCN3CCC4)nc3cc(-c4cc(O)cc5ccccc45)ccc13)C2` [P-0122, (1R,5S)-3-(7-(3-hydroxynaphthalen-1-yl)-2-((tetrahydro-1H-pyrrolizin-7a(5H)-yl)methoxy)quinazolin-4-yl)-N-((R)-pyrrolidin-3-yl)-3,8-diazabicyclo[3.2.1]octane-8-carboxamide]: the IC50 in test [1], in test [2] and in test [3] was 0.0001 to 10 µM in each case.

Take `O=C(N[C@H]1CCNC1)N1[C@@H]2CC[C@H]1CN(c1nc(OCC34CCCN3CCC4)nc3cc(-c4cc(O)cc5ccccc45)ccc13)C2` [P-0123, (1R,5S)-3-(7-(3-hydroxynaphthalen-1-yl)-2-((tetrahydro-1H-pyrrolizin-7a(5H)-yl)methoxy)quinazolin-4-yl)-N-((S)-pyrrolidin-3-yl)-3,8-diazabicyclo[3.2.1]octane-8-carboxamide]: the IC50 in test [1], in test [2] and in test [3] was 0.0001 to 10 µM each time.

For `CC1(NC(=O)N2[C@@H]3CC[C@H]2CN(c2nc(OCC45CCCN4CCC5)nc4cc(-c5cc(O)cc6ccccc56)ccc24)C3)CCNC1` (stereo partly drawn) [P-0124, (1R,5S)-3-(7-(3-hydroxynaphthalen-1-yl)-2-((tetrahydro-1H-pyrrolizin-7a(5H)-yl)methoxy)quinazolin-4-yl)-N-(3-methylpyrrolidin-3-yl)-3,8-diazabicyclo[3.2.1]octane-8-carboxamide], the IC50 in test [1], in test [2] and in test [3] was 0.0001 to 10 µM each time.

For `O=C(NC1CNC1)N1[C@@H]2CC[C@H]1CN(c1nc(OCC34CCCN3CCC4)nc3cc(-c4cc(O)cc5ccccc45)ccc13)C2` [P-0125, (1R,5S)-N-(azetidin-3-yl)-3-(7-(3-hydroxynaphthalen-1-yl)-2-((tetrahydro-1H-pyrrolizin-7a(5H)-yl)methoxy)quinazolin-4-yl)-3,8-diazabicyclo[3.2.1]octane-8-carboxamide], the IC50 in test [1], in test [2] and in test [3] was 0.0001 to 10 µM each time.

In the case of `O=C(Nc1cn[nH]c1)N1[C@@H]2CC[C@H]1CN(c1nc(OCC34CCCN3CCC4)nc3cc(-c4cc(O)cc5ccccc45)ccc13)C2` [P-0126, (1R,5S)-3-(7-(3-hydroxynaphthalen-1-yl)-2-((tetrahydro-1H-pyrrolizin-7a(5H)-yl)methoxy)quinazolin-4-yl)-N-(1H-pyrazol-4-yl)-3,8-diazabicyclo[3.2.1]octane-8-carboxamide], the IC50 in test [1], in test [2] and in test [3] was 0.0001 to 10 µM in each case.
